Patent US20090137572A1, “2-substituted-4-heteroaryl-pyrimidines useful for the treatment of proliferative disorders” (priority 2004, published 2009)

What was measured:
Format in all cases: biochemical
[1] = molecular target: T1, Flt3 (FMS-like tyrosine kinase-3) (Homo sapiens, UniProt P36888); assay: Kinase assay (radioactive phosphate incorporation), Flt3; settings: pIC50 is -log(IC50, M), read-out: Kinase Inhibition pIC50 Flt3 (converted)
T1 sequence (P36888 27-993): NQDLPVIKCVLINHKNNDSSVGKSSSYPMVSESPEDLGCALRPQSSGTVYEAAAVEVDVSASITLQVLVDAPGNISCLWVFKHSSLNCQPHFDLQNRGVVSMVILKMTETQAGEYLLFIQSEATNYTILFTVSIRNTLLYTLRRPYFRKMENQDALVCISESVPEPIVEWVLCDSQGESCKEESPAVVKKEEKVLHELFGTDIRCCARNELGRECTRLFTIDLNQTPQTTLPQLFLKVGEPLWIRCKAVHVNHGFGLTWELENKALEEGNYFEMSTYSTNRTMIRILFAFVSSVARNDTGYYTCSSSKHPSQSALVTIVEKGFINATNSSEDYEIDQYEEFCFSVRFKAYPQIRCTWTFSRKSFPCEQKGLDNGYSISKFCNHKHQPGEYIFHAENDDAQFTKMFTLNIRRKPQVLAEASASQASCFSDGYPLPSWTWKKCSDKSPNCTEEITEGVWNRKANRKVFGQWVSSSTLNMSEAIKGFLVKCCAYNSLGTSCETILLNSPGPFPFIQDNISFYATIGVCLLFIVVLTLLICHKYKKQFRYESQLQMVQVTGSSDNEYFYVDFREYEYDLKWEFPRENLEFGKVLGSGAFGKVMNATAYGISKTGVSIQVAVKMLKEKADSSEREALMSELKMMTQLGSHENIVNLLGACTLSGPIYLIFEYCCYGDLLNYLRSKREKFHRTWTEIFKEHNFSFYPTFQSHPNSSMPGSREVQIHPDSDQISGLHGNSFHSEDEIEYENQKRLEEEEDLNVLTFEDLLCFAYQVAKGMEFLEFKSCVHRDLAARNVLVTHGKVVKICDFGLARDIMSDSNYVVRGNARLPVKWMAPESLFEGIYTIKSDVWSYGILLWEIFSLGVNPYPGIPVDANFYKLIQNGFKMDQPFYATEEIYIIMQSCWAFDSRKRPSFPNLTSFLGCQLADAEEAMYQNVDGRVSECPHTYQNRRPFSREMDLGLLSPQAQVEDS
Protocol: (§1) Kinase assays. The compounds of the invention above were investigated for their ability to inhibit the enzymatic activity of various protein kinases (Table 2). This was achieved by measurement of incorporation of radioactive phosphate from ATP into appropriate polypeptide substrates. Recombinant protein kinases and kinase complexes were produced or obtained commercially. Assays were performed using 96-well plates and appropriate assay buffers (typically 25 mM β-glycerophosphate, 20 mM MOPS, 5 mM EGTA, 1 mM DTT, 1 mM […], pH 7.4), into which were added 2-4 μg of active enzyme with appropriate substrates. The reactions were initiated by addition of Mg/ATP mix (15 mM MgCl2+100 μM ATP with 30-50 kBq per well of [γ-^32P]-ATP) and mixtures incubated as required at 30° C. Reactions were stopped on ice, followed by filtration through p81 filterplates or GF/C filterplates (Whatman Polyfiltronics, Kent, UK). After washing 3 times with 75 mM aq orthophosphoric acid, plates were dried, scintillant added and incorporated radioactivity measured in a scintillation counter (TopCount, Packard Instruments, Pangbourne, Berks, UK). Compounds for kinase assay were made up as 10 mM stocks in DMSO and diluted into 10% DMSO in assay buffer.

[2] = molecular target: CDK2-cycline E (Homo sapiens, UniProt P24941); assay: Kinase assay (radioactive phosphate incorporation), CDK2-cyclin E; settings: read-out: Kinase Inhibition pIC50 CDK2-cycline E (converted)
Protocol: as §1

[3] = molecular target: CDK7/cyclin H (Homo sapiens, UniProt P50613); assay: CDK 7 assay (CTD peptide substrate); settings: read-out: Kinase Inhibition pIC50 CDK7-cyclin H (converted)
Sequence of CDK7/cyclin H (P50613 whole entry): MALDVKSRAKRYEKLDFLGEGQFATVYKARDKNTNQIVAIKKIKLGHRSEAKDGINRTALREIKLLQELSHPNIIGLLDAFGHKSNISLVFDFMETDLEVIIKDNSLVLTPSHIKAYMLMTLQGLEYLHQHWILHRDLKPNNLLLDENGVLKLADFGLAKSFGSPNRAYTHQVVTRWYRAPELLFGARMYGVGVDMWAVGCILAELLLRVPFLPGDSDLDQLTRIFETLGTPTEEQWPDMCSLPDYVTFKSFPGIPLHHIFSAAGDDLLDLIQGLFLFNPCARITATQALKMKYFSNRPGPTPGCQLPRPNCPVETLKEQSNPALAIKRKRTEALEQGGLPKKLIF
Sequence of CDK7/cyclin H (P51946 whole entry partner): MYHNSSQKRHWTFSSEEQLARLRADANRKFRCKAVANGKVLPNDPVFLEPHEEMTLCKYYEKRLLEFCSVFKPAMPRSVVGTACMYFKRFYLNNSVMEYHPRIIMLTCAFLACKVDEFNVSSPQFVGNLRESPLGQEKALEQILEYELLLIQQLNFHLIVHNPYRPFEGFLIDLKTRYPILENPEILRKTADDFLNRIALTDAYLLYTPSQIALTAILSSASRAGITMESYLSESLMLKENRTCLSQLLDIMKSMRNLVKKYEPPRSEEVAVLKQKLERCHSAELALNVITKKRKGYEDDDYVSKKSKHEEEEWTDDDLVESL
Protocol: as §1
(§2) CDK 7 and 9 assays. CTD peptide substrate (biotinyl-Abx-(Tyr-Ser-Pro-Thr-Ser-Pro-Ser)4-NH2; 1-2 mg/mL) and recombinant human CDK7/cyclin H, CDK9/cyclin T1, or CDK9/cyclin K (0.5-2 μg) were incubated for 45 min at 30° C. in the presence of varying amounts of test compound in 20 mM MOPS pH 7.2, 25 mM β-glycerophosphate, 5 mM EGTA, 1 mM DTT, 1 mM sodium vanadate, 15 mM MgCl2, and 100 μM ATP (containing a trace amount of ^32PγATP) in a total volume of 25 μL in a 96-well microtiter plate. The reaction was stopped by placing the plate on ice for 2 min. Avidin (50 μg) was added to each well, and the plate was incubated at room temp for 30 min. The samples were transferred to a 96-well P81 filter plate, and washed (4×200 μL per well) with 75 mM phosphoric acid. Microscint 40 scintillation liquid (50 μL) was added to each well, and the amount of ^32P incorporation for each sample was measured using a Packard Topcount microplate scintillation counter.

[4] = molecular target: T2, Aurora A kinase (Homo sapiens, UniProt O14965); assay: Aurora-A (human) kinase assay (Kemptide substrate); settings: pIC50 is -log(IC50, M); 15 μM ATP; read-out: Kinase Inhibition pIC50 Aurora A kinase (converted)
T2 construct: purchased
T2 sequence (O14965 1-403): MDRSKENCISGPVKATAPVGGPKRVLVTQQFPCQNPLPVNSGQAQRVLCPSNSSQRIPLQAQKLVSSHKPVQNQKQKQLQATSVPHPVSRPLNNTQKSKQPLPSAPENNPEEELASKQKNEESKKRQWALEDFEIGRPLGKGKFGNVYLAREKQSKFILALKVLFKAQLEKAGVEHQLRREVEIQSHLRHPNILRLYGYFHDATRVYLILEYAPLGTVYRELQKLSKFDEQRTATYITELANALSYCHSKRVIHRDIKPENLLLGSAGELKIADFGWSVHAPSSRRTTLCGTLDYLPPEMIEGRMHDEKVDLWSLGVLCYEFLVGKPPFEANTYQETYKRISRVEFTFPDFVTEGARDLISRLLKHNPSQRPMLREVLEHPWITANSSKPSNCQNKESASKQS
Protocol: Aurora-A (human) kinase assay. This was achieved by measurement of incorporation of radioactive phosphate from ATP into Kemptide substrate (LRRASLG), upon phosphorylation by commercially obtained aurora-A kinase. Assays were performed using 96-well plates and appropriate assay buffers (8 mM MOPS, 0.2 mM EDTA, pH 7.0), into which were added 5-10 ng of active enzyme with 200 μM substrate (Kemptide). The reactions were initiated by addition of Mg/ATP mix (10 mM MgAcetate+15 μM ATP with 30-50 kBq per well of [γ-^33P]-ATP) and mixtures incubated for 40 min at room temperature. Reactions were stopped by addition of 3% phosphoric acid, followed by filtration through p81 filterplates (Whatman Polyfiltronics, Kent, UK). After washing 5 times with 75 mM aq orthophosphoric acid and once in methanol, plates were dried, scintillant added and incorporated radioactivity measured in a scintillation counter (TopCount, Packard Instruments, Pangbourne, Berks, UK). Compounds for kinase assay were made up as 10 mM stocks in DMSO and diluted into 10% DMSO in assay buffer.

[5] = molecular target: CDK9/cyclin T1 (Homo sapiens, UniProt P50750); assay: CDK 9 assay (CTD peptide substrate); settings: read-out: Kinase Inhibition pIC50 CDK9-cyclin T1 (converted)
Sequence of CDK9/cyclin T1 (P50750 whole entry): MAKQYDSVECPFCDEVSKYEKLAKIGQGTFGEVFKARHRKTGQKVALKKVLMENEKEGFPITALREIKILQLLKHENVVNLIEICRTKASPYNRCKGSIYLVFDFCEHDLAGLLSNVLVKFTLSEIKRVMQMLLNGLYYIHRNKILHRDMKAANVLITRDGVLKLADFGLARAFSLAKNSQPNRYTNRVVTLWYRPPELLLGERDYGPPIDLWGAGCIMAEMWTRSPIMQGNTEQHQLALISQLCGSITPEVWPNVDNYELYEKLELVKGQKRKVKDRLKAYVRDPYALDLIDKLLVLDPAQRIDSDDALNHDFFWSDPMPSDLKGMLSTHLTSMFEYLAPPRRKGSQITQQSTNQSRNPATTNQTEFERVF
Sequence of CDK9/cyclin T1 (O60563 whole entry partner): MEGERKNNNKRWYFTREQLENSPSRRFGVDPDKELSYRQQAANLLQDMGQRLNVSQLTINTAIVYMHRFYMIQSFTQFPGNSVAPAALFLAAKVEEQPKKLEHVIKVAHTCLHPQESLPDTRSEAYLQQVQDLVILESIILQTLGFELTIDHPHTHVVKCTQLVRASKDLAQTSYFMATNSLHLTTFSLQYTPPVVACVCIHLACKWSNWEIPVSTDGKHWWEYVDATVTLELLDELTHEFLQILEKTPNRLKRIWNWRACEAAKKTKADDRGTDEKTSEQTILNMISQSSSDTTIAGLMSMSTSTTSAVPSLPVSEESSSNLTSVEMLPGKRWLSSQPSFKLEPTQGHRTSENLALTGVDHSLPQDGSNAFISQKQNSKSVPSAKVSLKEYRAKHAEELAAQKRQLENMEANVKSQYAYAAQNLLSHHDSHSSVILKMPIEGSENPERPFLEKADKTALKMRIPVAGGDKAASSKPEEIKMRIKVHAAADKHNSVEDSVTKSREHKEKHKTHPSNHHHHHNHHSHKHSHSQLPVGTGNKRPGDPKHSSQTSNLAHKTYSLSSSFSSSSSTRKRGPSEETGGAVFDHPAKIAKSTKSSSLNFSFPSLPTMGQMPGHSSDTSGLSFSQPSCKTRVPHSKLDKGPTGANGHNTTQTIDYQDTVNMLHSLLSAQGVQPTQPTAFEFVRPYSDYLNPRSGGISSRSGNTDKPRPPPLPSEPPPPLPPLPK
Protocol: as §1, §2

Row | IC50 [1] [µM] | IC50 [2] [µM] | IC50 [3] [µM] | IC50 [4] [µM] | IC50 [5] [µM] | SMILES
1 | 0.126 | 1.26 |  | 0.158 |  | Cc1nc(C)c(-c2ccnc(Nc3cccc(CN4CCOCC4)c3)n2)s1 [Compound 150, [4-(2,4-Dimethyl-thiazol-5-yl)-pyrimidin-2-yl]-(3-morpholin-4-ylmethyl-phenyl)-amine]
2 | 0.0631 | 0.2 |  | 0.0631 |  | Cc1nc(C)c(-c2ccnc(Nc3ccc(O)c(CN4CCOCC4)c3)n2)s1 [Compound 151, 4-[4-(2,4-Dimethyl-thiazol-5-yl)-pyrimidin-2-ylamino]-2-morpholin-4-ylmethyl-phenol]
3 | 0.0316 | 0.316 |  | 0.0501 |  | Cc1nc(C)c(-c2ccnc(Nc3cccc(N4CCOCC4)c3)n2)s1 [Compound 152, [4-(2,4-Dimethyl-thiazol-5-yl)-pyrimidin-2-yl]-(3-morpholin-4-yl-phenyl)-amine]
4 | 0.158 | 1.26 | 0.251 | 0.1 | 1 | Cc1nc(C)c(-c2ccnc(Nc3ccc(CN4CCOCC4)cc3)n2)s1 [Compound 174, [4-(2,4-Dimethyl-thiazol-5-yl)-pyrimidin-2-yl]-(4-morpholin-4-ylmethyl-phenyl)-amine]
5 |  | 1.26 | 7.94 | 0.0501 | 3.98 | Cc1cc(Nc2nccc(-c3sc(CO)nc3C)n2)ccc1N1CCOCC1 [Compound 217, {4-Methyl-5-[2-(3-methyl-4-morpholin-4-yl-phenylamino)-pyrimidin-4-yl]-thiazol-2-yl}-methanol]

The next lines start with the compound.

Row | SMILES | IC50 [1] [µM] | IC50 [2] [µM] | IC50 [3] [µM] | IC50 [4] [µM] | IC50 [5] [µM]
6 | COCCOC(=O)Cc1cccc(Nc2nccc(-c3sc(N)nc3C)n2)c1 [Compound 1, {3-[4-(2-Amino-4-methyl-thiazol-5-yl)-pyrimidin-2-ylamino]-phenyl}-acetic acid 2-methoxy-ethyl ester] | 0.126 | 1 | 3.16 |  | 
7 | COc1cc(Nc2nccc(-c3sc(C)nc3C)n2)cc(OC)c1OC [Compound 25, [4-(2,4-Dimethyl-thiazol-5-yl)-pyrimidin-2-yl]-(3,4,5-trimethoxy-phenyl)-amine] | 0.0631 |  | 3.16 | 0.02 | 2
8 | Cc1nc(C)c(-c2ccnc(Nc3cc(CO)cc(CO)c3)n2)s1 [Compound 47, {3-[4-(2,4-Dimethyl-thiazol-5-yl)-pyrimidin-2-ylamino]-5-hydroxymethyl-phenyl}-methanol] | 0.2 |  |  |  | 
9 | Cc1nc(C)c(-c2ccnc(Nc3ccc(N4CC(C)OC(C)C4)cc3)n2)s1 (stereo not drawn) [Compound 121, [4-(2,6-Dimethyl-morpholin-4-yl)-phenyl]-[4-(2,4-dimethyl-thiazol-5-yl)-pyrimidin-2-yl]-amine] | 0.398 | 5.01 |  | 0.0398 | 3.98
10 | COc1cc(Nc2nccc(-c3sc(-c4cccnc4)nc3C)n2)cc(OC)c1OC [Compound 154, [4-(4-Methyl-2-pyridin-3-yl-thiazol-5-yl)-pyrimidin-2-yl]-(3,4,5-trimethoxy-phenyl)-amine] | 0.1 |  |  | 0.0794 | 
11 | COc1cc(Nc2nccc(-c3sc(-c4cccnc4)nc3C)n2)ccc1N1CCOCC1 [Compound 156, (3-Methoxy-4-morpholin-4-yl-phenyl)-[4-(4-methyl-2-pyridin-3-yl-thiazol-5-yl)-pyrimidin-2-yl]-amine] | 0.1 |  |  | 0.1 | 
12 | Cc1nc(N(C)c2cccnc2)sc1-c1ccnc(Nc2ccc(N3CCOCC3)cc2)n1 [Compound 162, {4-[4-Methyl-2-(methyl-pyridin-3-yl-amino)-thiazol-5-yl]-pyrimidin-2-yl}-(4-morpholin-4-yl-phenyl)-amine] | 0.0631 | 3.16 |  | 0.126 | 3.16
13 | COc1cc(Nc2nccc(-c3sc(N)nc3C)n2)cc(OC)c1OC [Compound 168, [4-(2-Amino-4-methyl-thiazol-5-yl)-pyrimidin-2-yl]-(3,4,5-trimethoxy-phenyl)-amine] | 0.00501 | 0.398 | 1.26 | 0.0316 | 0.316
14 | CCNc1nc(C)c(-c2ccnc(Nc3ccc(N4CC(C)OC(C)C4)cc3)n2)s1 (stereo not drawn) [Compound 169, [4-(2,6-Dimethyl-morpholin-4-yl)-phenyl]-[4-(2-ethylamino-4-methyl-thiazol-5-yl)-pyrimidin-2-yl]-amine] | 0.0398 | 1.58 |  | 0.0501 | 3.16
15 | CNc1nc(C)c(-c2ccnc(Nc3cc(OC)cc(OC)c3)n2)s1 [Compound 170, (3,5-Dimethoxy-phenyl)-[4-(4-methyl-2-methylamino-thiazol-5-yl)-pyrimidin-2-yl]-amine] | 0.01 | 0.316 |  | 0.0631 | 
16 | COc1cc(Nc2nccc(-c3sc(CO)nc3C)n2)ccc1N1CCCCC1 [Compound 216, {5-[2-(3-Methoxy-4-piperidin-1-yl-phenylamino)-pyrimidin-4-yl]-4-methyl-thiazol-2-yl}-methanol] |  | 1.58 | 1.58 | 0.0631 | 0.631
